Measurements taken from ChEMBL document CHEMBL1201862, “PubChem BioAssay data set” (2004).
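Test compounds were applied to cells in 96-well plates for 48 hours at 5 doses. Here, GI50 denotes the concentration required for 50% inhibition of growth.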 Calls of active or inactive are those of the source. Rule as the data show it: active = GI50 up to about 1.1 µM and inactive = higher.

Experiments:
Test in all cases: NCI tumour cell line growth inhibition, 48 h
CCRF-CEM = tested on: CCRF-CEM
SK-MEL-28 = tested on: SK-MEL-28
SNB-19 = tested on: SNB-19
HL-60 = tested on: HL-60
MDA-MB-231 = tested on: MDA-MB-231
MDA-MB-435 = tested on: MDA-MB-435
MCF7 = tested on: MCF7
HCC 2998 = tested on: HCC 2998
HOP-62 = tested on: HOP-62
SK-MEL-5 = tested on: SK-MEL-5
NCI-H460 = tested on: NCI-H460
NCI-H522 = tested on: NCI-H522
EKVX = tested on: EKVX
T47D = tested on: T47D
RXF 393 = tested on: RXF 393
HCT-15 = tested on: HCT-15
LOX IMVI = tested on: LOX IMVI
A549 = tested on: A549
HT-29 = tested on: HT-29
UACC-257 = tested on: UACC-257
M14 = tested on: M14
UACC-62 = tested on: UACC-62
SW-620 = tested on: SW-620
MDA-N = tested on: MDA-N
SF-295 = tested on: SF-295
U-251 = tested on: U-251
Malme-3M = tested on: Malme-3M
DU-145 = tested on: DU-145
ACHN = tested on: ACHN
SK-OV-3 = tested on: SK-OV-3
KM12 = tested on: KM12
PC-3 = tested on: PC-3
A498 = tested on: A498
HCT-116 = tested on: HCT-116
OVCAR-3 = tested on: OVCAR-3
MOLT-4 = tested on: MOLT-4
NCI-H226 = tested on: NCI-H226
OVCAR-5 = tested on: OVCAR-5
IGROV-1 = tested on: IGROV-1
Hs-578T = tested on: Hs-578T
COLO 205 = tested on: COLO 205
SF-539 = tested on: SF-539
HOP-92 = tested on: HOP-92
RPMI-8226 = tested on: RPMI-8226
SF-268 = tested on: SF-268
SNB-75 = tested on: SNB-75
TK-10 = tested on: TK-10
SR = tested on: SR
CAKI-1 = tested on: CAKI-1
SN12C = tested on: SN12C
786-0 = tested on: 786-0
OVCAR-8 = tested on: OVCAR-8
NCI-H23 = tested on: NCI-H23
K562 = tested on: K562
BT-549 = tested on: BT-549
OVCAR-4 = tested on: OVCAR-4
NCI/ADR-RES = tested on: NCI/ADR-RES
UO-31 = tested on: UO-31
SK-MEL-2 = tested on: SK-MEL-2

Measured: GI50

COc1cc(/C=C2\CCC(C)C3C2=NN(C(C)=O)C3c2cc(OC)c(OC)c(OC)c2)cc(OC)c1OC (centres undefined)
99.8 µM: HCT-15
inactive: CCRF-CEM > 100 µM | SK-MEL-28 6.93 µM | SNB-19 > 100 µM | HL-60 > 91.6 µM | MDA-MB-231 > 72.9 µM | MDA-MB-435 > 100 µM | MCF7 > 77.6 µM | HCC 2998 > 100 µM | HOP-62 > 59.2 µM | SK-MEL-5 > 57 µM | NCI-H460 > 100 µM | NCI-H522 5.09 µM | EKVX > 100 µM | T47D 9.86 µM | RXF 393 43.5 µM | LOX IMVI > 100 µM | A549 > 100 µM | HT-29 > 100 µM | UACC-257 > 59.8 µM | M14 > 100 µM | UACC-62 38.8 µM | SW-620 > 100 µM | MDA-N > 100 µM | SF-295 > 100 µM | U-251 > 85.5 µM | Malme-3M 43.6 µM | DU-145 > 100 µM | ACHN 25.1 µM | SK-OV-3 > 100 µM | KM12 > 33 µM | PC-3 > 100 µM | A498 > 100 µM | HCT-116 > 100 µM | OVCAR-3 > 100 µM | MOLT-4 > 100 µM | NCI-H226 > 100 µM | OVCAR-5 10.2 µM | IGROV-1 3.13 µM | Hs-578T 45.8 µM | COLO 205 > 100 µM | SF-539 > 100 µM | HOP-92 > 100 µM | RPMI-8226 36.7 µM | SF-268 > 85.1 µM | SNB-75 15.8 µM | TK-10 > 81.1 µM | SR > 52.6 µM | CAKI-1 14.2 µM | SN12C > 100 µM | 786-0 > 79.6 µM | OVCAR-8 > 100 µM | NCI-H23 > 100 µM | K562 > 100 µM | BT-549 > 100 µM | OVCAR-4 > 100 µM

O=C(C[N+]12CN3CN(CN(C3)C1)C2)c1ccc(-c2ccccc2)cc1
inactive: CCRF-CEM 1.71 µM | SK-MEL-28 17.6 µM | SNB-19 22.6 µM | MDA-MB-231 16.2 µM | MDA-MB-435 36.5 µM | HCC 2998 15.4 µM | HOP-62 23 µM | SK-MEL-5 16.4 µM | NCI-H460 13.7 µM | NCI-H522 19.3 µM | EKVX 19.8 µM | T47D 37.2 µM | RXF 393 19.1 µM | LOX IMVI 15.3 µM | A549 30.1 µM | HT-29 22.5 µM | UACC-257 15.8 µM | M14 21.7 µM | NCI/ADR-RES 33.4 µM | UACC-62 16.1 µM | SW-620 8.67 µM | MDA-N 21.8 µM | SF-295 19.8 µM | U-251 16.8 µM | Malme-3M 21.3 µM | DU-145 17.6 µM | ACHN 21.4 µM | UO-31 23.4 µM | KM12 32 µM | PC-3 16 µM | A498 19.6 µM | HCT-116 18.8 µM | OVCAR-3 29.3 µM | MOLT-4 16.7 µM | NCI-H226 21.2 µM | OVCAR-5 18.6 µM | IGROV-1 24.3 µM | Hs-578T 32.7 µM | SK-MEL-2 18.3 µM | HOP-92 33.5 µM | SF-268 19.4 µM | SNB-75 19.7 µM | TK-10 21.2 µM | SR 3.2 µM | CAKI-1 43.9 µM | SN12C 19.7 µM | 786-0 17.7 µM | OVCAR-8 32 µM | NCI-H23 23.3 µM | K562 15 µM | BT-549 29.9 µM | OVCAR-4 51.4 µM
30.1 µM: HCT-15
